# Source: publication PMC9090415, “Discovery of small molecule inhibitors of Plasmodium falciparum apicoplast DNA polymerase” (Journal of Enzyme Inhibition and Medicinal Chemistry, 2022)
# Target: P. falciparum apicoplast DNA polymerase (Pf-apPOL) (Plasmodium falciparum, UniProt Q8ILY1)
# Assay: Fluorescence-based high-throughput DNA polymerase assay (molecular beacon), primary screen and dose-response;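 for % inhibition ApPOL 90': test concentration in µM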;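 for % inhibition apPOL 180': test concentration in µM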
# Assay type: biochemical
# Summary of the method: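 Single-point screening used 10 µM compound with 20 nM polymerase, 20 nM hairpin substrate and 6 µM dNTPs for 90 min at 25 °C. Confirmatory titrations (2.5–80 µM) followed fluorescence at three times, and IC50 was derived from a fit including a cooperativity term n.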
# Sequence of P. falciparum apicoplast DNA polymerase (Pf-apPOL) (Q8ILY1 entry or part of it): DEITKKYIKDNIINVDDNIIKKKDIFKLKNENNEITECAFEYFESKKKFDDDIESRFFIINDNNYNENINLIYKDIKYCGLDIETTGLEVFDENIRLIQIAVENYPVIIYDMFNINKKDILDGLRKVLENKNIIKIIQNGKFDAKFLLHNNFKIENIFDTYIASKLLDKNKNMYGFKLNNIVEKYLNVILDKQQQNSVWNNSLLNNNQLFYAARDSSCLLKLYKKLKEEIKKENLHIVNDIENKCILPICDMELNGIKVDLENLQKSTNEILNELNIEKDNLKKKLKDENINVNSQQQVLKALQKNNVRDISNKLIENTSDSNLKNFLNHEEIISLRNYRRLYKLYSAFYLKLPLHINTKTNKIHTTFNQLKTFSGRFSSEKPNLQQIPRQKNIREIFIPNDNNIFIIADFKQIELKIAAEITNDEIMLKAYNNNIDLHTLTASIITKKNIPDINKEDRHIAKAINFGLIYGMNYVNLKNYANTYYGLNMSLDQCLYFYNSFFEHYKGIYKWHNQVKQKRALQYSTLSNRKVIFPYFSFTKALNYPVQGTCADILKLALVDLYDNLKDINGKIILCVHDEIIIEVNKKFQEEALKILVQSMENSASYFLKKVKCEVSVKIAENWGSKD
smiles,measurement,setting,value
"O=C(O)C(=O)Nc1nc(-c2ccc3c(c2)OCCO3)cs1 [Molecule 82, OC(=O)C(=O)Nc1scc(n1)c1ccc2c(c1)OCCO2]",DNA Pol,"186 hits, value of the hit list (primary screen); unit not given; 90 min, 10 µM",43
same,% inhibition Apo pol 10',DRC-1; 10'; concentration 2.5,23.4738%
same,% inhibition Apo pol 10',DRC-1; 10'; concentration 5,27.4589%
same,% inhibition Apo pol 10',DRC-1; 10'; concentration 10,36.2592%
same,% inhibition Apo pol 10',DRC-1; 10'; concentration 20,39.5068%
same,% inhibition Apo pol 10',DRC-1; 10'; concentration 40,47.7699%
same,% inhibition Apo pol 10',DRC-1; 10'; concentration 80,63.5129%
same,% inhibition Apol 90',DRC-1; 90'; concentration 2.5,8.772%
same,% inhibition Apol 90',DRC-1; 90'; concentration 5,11.5991%
same,% inhibition Apol 90',DRC-1; 90'; concentration 10,21.2379%
same,% inhibition Apol 90',DRC-1; 90'; concentration 20,24.9603%
same,% inhibition Apol 90',DRC-1; 90'; concentration 40,33.8146%
same,% inhibition Apol 90',DRC-1; 90'; concentration 80,46.367%
same,% inhibition apPOL 180',DRC-1; 180'; concentration 2.5,0.4032%
same,% inhibition apPOL 180',DRC-1; 180'; concentration 5,2.14%
same,% inhibition apPOL 180',DRC-1; 180'; concentration 10,10.4775%
same,% inhibition apPOL 180',DRC-1; 180'; concentration 20,13.4628%
same,% inhibition apPOL 180',DRC-1; 180'; concentration 40,21.1866%
same,% inhibition apPOL 180',DRC-1; 180'; concentration 80,32.4786%
same,% inhibition Apo pol 5',"DRC-2, 5', concentration 2.5",23%
same,% inhibition Apo pol 5',"DRC-2, 5', concentration 5",17%
same,% inhibition Apo pol 5',"DRC-2, 5', concentration 10",25%
same,% inhibition Apo pol 5',"DRC-2, 5', concentration 20",30%
same,% inhibition Apo pol 5',"DRC-2, 5', concentration 40",34%
same,% inhibition Apo pol 5',"DRC-2, 5', concentration 80",46%
same,% inhibition Apol 40',"DRC-2, 40', concentration 2.5",13%
same,% inhibition Apol 40',"DRC-2, 40', concentration 5",15%
same,% inhibition Apol 40',"DRC-2, 40', concentration 10",24%
same,% inhibition Apol 40',"DRC-2, 40', concentration 20",28%
same,% inhibition Apol 40',"DRC-2, 40', concentration 40",37%
same,% inhibition Apol 40',"DRC-2, 40', concentration 80",46%
same,% inhibition ApPOL 90',"DRC-2, 90', concentration 2.5",8%
same,% inhibition ApPOL 90',"DRC-2, 90', concentration 5",14%
same,% inhibition ApPOL 90',"DRC-2, 90', concentration 10",23%
same,% inhibition ApPOL 90',"DRC-2, 90', concentration 20",26%
same,% inhibition ApPOL 90',"DRC-2, 90', concentration 40",34%
same,% inhibition ApPOL 90',"DRC-2, 90', concentration 80",43%
same,% inhibition apPOL 180',"DRC-2, 180', concentration 2.5",0.181%
same,% inhibition apPOL 180',"DRC-2, 180', concentration 5",9%
same,% inhibition apPOL 180',"DRC-2, 180', concentration 10",15%
same,% inhibition apPOL 180',"DRC-2, 180', concentration 20",18%
same,% inhibition apPOL 180',"DRC-2, 180', concentration 40",25%
same,% inhibition apPOL 180',"DRC-2, 180', concentration 80",34%
same,% inhibition Apo pol 5',DRC-2; 5'; concentration 2.5,23%
same,% inhibition Apo pol 5',DRC-2; 5'; concentration 10,25%
same,% inhibition Apo pol 5',DRC-2; 5'; concentration 40,34%
same,% inhibition Apo pol 5',DRC-2; 5'; concentration 80,46%
same,% inhibition Apol 40',DRC-2; 40'; concentration 5,15%
same,% inhibition Apol 40',DRC-2; 40'; concentration 80,46%
same,% inhibition ApPOL 90',DRC-2; 90'; concentration 10,23%
same,% inhibition ApPOL 90',DRC-2; 90'; concentration 40,34%
same,% inhibition apPOL 180',DRC-2; 180'; concentration 10,15%
same,% inhibition apPOL 180',DRC-2; 180'; concentration 40,25%
same,% inhibition apPOL 180',DRC-2; 180'; concentration 80,34%
same,DNA Pol,"primary screen value, 'DNA Pol' only; 90 min, 10 µM",43
O=C(O)C(=O)Nc1nc(-c2ccc3c(c2)OCCO3)cs1 [Molecule 82],IC50,"supplemental file 2, sheet IC50 nontoxic compounds; Pf-apPOL",40.5 µM
